Data as given in US6274348A, “Methods for the preparation of positively charged proteins” (XOMA Corporation, priority 1997, dated 2001).

Key:
[1] = biological target: T1, rBPI(1-191)-IgG fusion protein (human BPI residues 1-191 fused to human IgG1 heavy chain hinge-CH2-CH3) (Homo sapiens, UniProt P01857+P17213); assay: direct 3H-heparin binding assay; conditions: highest 3H heparin concentration tested 2.5 μM; protein at 100 pmol/well, one hour at 4° C.
T1 construct: an rBPI(1-191)-IgG fusion protein was added to the wells of a 96-well plate; made in house; host or cells: CHO-DG44
Excerpt: (§1) A direct ^3 H-heparin binding assay was utilized to analyze the comparative binding of rBPI(1-199) and rBPI-Ig fusions to heparin. The assay was based on the ability of a derivatized nylon membrane to bind proteins with high capacity. Such a membrane has been incorporated into the bottom of 96-well microtiter plates by Millipore Corp. (Bedford Mass.) (MULTISCREEN IP plates) and may be punched out of each well for scintillation counting.
(§2) To conduct the assay, rBPI(1-199) or an rBPI(1-191)-IgG fusion protein was added to the wells of a 96-well plate at a concentration of 100 pmol/well diluted with phosphate buffered saline (PBS), pH 7.4 nylon membrane. Upon absorption to the membrane, the wells were blocked with a blocking buffer comprising 0.1% bovine serum albumin (BSA) in PBS. Serial dilutions of ^3 H heparin (DuPont, NEN, Wilmington, Del.) were made from 4-5 μg/ml in the blocking buffer and incubated in the wells coated with either rBPI(1-199) and rBPI(1-191)-IgG for one hour at 4° C. After one hour, unbound heparin was aspirated and the wells were washed three times with blocking buffer, dried, and removed for quantitation of bound ^3 H-heparin by liquid scintillation counting.

[2] = biological target: T2, rBPI(1-199), first 199 N-terminal amino acids of mature human BPI (SEQ ID NOS: 1 and 2) (Homo sapiens, UniProt P17213); assay: direct 3H-heparin binding assay; conditions: protein adsorbed to nylon membrane at 100 pmol/well, 3H heparin dilutions, one hour at 4° C., PBS pH 7.4 with 0.1% BSA; read-out: apparent affinity (Kd) for heparin
T2 construct: made in house
T2 sequence (P17213 32-230): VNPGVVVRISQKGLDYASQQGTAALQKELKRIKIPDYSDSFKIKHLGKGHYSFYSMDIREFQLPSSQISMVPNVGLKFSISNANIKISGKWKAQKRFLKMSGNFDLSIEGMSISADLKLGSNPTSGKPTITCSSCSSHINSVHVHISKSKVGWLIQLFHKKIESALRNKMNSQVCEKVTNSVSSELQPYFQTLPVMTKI
Excerpt: as §1, §2

T1 sequence (P17213+P01857 fused): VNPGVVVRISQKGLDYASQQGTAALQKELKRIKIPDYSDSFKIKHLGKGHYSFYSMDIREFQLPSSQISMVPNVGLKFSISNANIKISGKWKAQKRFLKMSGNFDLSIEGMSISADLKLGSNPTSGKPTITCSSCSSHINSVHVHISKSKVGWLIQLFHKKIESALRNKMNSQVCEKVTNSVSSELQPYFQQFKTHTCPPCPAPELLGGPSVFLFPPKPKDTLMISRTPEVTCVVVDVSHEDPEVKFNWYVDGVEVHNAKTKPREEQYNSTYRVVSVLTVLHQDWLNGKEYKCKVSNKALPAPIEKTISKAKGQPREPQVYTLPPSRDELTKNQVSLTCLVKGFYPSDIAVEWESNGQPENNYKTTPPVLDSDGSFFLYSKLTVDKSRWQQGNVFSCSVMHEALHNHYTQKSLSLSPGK

heparin was tested, and the “saturation of 3H heparin binding” value [1] was “did not reach saturation” and the Kd [2] was 114 ± 30 nM.
